Test results from patent US20070213291A1, “Therapeutically useful synthetic oligonucleotides” (priority 1999, published 2007).

Legend:
[1] = system: Jurkat human leukemia T cells; assay: Inhibition of Jurkat human leukemia T cell proliferation (MTT reduction); type: cell-based; settings: 100 μg/ml sequence, 48 h, 2.5×10^5 cells/ml
In short: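 Read-out is MTT absorbance at 570 nm after 48 h. Sequences of 2 to 45 bases (A, C, G, T) tested at 100 μg/ml against untreated control, with 2.5×10^5 Jurkat cells/ml held at 37° C under 5% CO2.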

[2] = system: IMC tumor; settings: premixed with IMC cells and injected into CDF-1 mice; cited from earlier work
[3] = system: THP-1 human acute monocytic leukemia cells; assay: Cytokine production by THP-1 cells (ELISA); type: cell-based; settings: THP-1, 1×10^6 cells, 100 μg/ml, 48 h; for ↑ IL-12 (fold increase treated vs control cells): p70 complex and free p40
In short: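 Read-out is fold increase in supernatant cytokine versus control cells, measured by ELISA (IL-12 ELISA counts p70 complex plus free p40). Unless noted, sequences were tested at 100 μg/ml on 1×10^6 cells, incubated 48 h, 37° C, 5% CO2.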

Sequence | % INHIBITION of Jurkat human leukemia T cell proliferation [1] [%] | inhibition of IMC tumor growth [2] [%] | ↑ IL-6 (fold increase treated vs control cells) [3] [x] | ↑ IL-12 (fold increase treated vs control cells) [3] [x]
AAAAGAAGTGGGGTGCCCCCACGATCACCAACGATGGTGTGTCCA (unmodified DNA) [BCG A-2, reference compound] | 19 | 88 | 3.9 | 1.6
ACCGATGACGTCGCCGGTGACGGCAACACGACGGCCACCGTGCTG (unmodified DNA) [BCG A-4, reference compound] | 9 | 37 | 1.8 | 0.9
